Patent publication US20230339863A1, “INDAZOLE DERIVATIVES AS CANNABINOID RECEPTOR PARTIAL AGONISTS” (RESEARCH TRIANGLE INSTITUTE, priority 2020, published 2023)

Columns and labels:
human CB2 = human CB2 (Homo sapiens (Human), UniProt P34972); test: In vitro cannabinoid receptor activity assay (calcium mobilization, FLIPR) in CHO cells expressing human CB2 and Gαq16; assay type: cell-based; conditions: for EC50: CHO cells, hCB2, calcium fluorescence, read-out: hCB2 Ca EC50; for hCB2 Ca Span: percentage of the maximum CP55940 signal
Experimental: (§1) In vitro cannabinoid receptor activity assay. Chinese Hamster Ovary (CHO) cells stably expressing either human CB1 or CB2 cDNA and the promiscuous G-protein Gαq16 were transferred to each well of a black Costar 96-well optical bottom plate (Corning Corporation). Each plate was incubated at 37° C. for 24 hr to confluence. The culture media was removed from the plates and cells were subsequently loaded with a fluorescent calcium probe (Calcium 5 dye, Molecular Devices) at a final loading concentration of 2 μM in a HBSS-based buffer containing 20 mM HEPES, 1% BSA and 10 μM Probenecid (Sigma) in a total volume of 225 μl. Cells were incubated at 37° C. for 1 hr and then stimulated with various concentrations of a test agent using a FLIPR Tetra plate-reader, which automatically added the agonist at 10× concentration to each well after reading baseline values for ˜17 sec. Agonist-mediated change in fluorescence (488 nm excitation, 525 nm emission) was monitored in each well at 1 sec intervals for 60 sec and reported for each well. Data were analyzed using Prism software (GraphPad). Non-linear regression analysis was performed to fit data and obtain maximum response (Emax), effective concentration for 50% response (EC50), correlation coefficient (r2) and other parameters. All experiments were performed 3-6 times to ensure reproducibility.
(§2) Reference is made to the following reference, hereby incorporated by reference with regard to such assay, Seltzman, et al., Peripherally Selective Cannabinoid 1 Receptor (CB1R) Agonists for the Treatment of Neuropathic Pain, J Med Chem. 2016 Aug. 25; 59 (16):7525-43. doi: 10.1021/acs.jmedchem.6b00516. Epub 2016 Aug. 10.

human CB1 = human CB1 (Homo sapiens (Human), UniProt P21554); test: In vitro cannabinoid receptor activity assay (calcium mobilization, FLIPR) in CHO cells expressing human CB1 and Gαq16; assay type: cell-based; conditions: for EC50: CHO cells, hCB1, calcium fluorescence, read-out: hCB1 Ca EC50; for hCB1 Ca Span: percentage of the maximum CP55940 signal
Experimental: as §1, §2

| Compound | EC50 (human CB2) [nM] | EC50 (human CB1) [nM] | hCB1 Ca Span (human CB1) [%] | hCB2 Ca Span (human CB2) [%] |
| --- | --- | --- | --- | --- |
| CC(c1ccc(F)cc1)n1nc(C(=O)NC(C)(C)c2cccc(C(N)=O)c2)c2ccccc21 (stereo not shown) [Example 14, N-[2-(3-Carbamoylphenyl)propan-2-yl]-1-[1-(4-fluorophenyl)ethyl]-1H-indazole-3-carboxamide] | > 10000 | 240 | 76 | – |
| CC(C)(NC(=O)c1nn(CCCCCF)c2ccccc12)c1cccc(C(N)=O)c1 [Example 18, N-[2-(3-Carbamoylphenyl)propan-2-yl]-1-(5-fluoropentyl)-1H-indazole-3-carboxamide] | 84 | 78 | 27 | 35 |
| C[C@@H](NC(=O)c1nn(Cc2ccc(F)cc2)c2ccccc12)c1cccc(C(N)=O)c1 [Example 10, N-[(1R)-1-(3-Carbamoylphenyl)ethyl]-1-[(4-fluorophenyl)methyl]-1H-indazole-3-carboxamide] | 660 | 490 | 19 | 25 |
| CC(C)(NC(=O)c1nn(Cc2ccc(F)cc2)c2ccccc12)C1CCN(C(N)=O)CC1 [Example 31, N-[2-(1-Carbamoylpiperidin-4-yl)propan-2-yl]-1-[(4-fluorophenyl)methyl]-1H-indazole-3-carboxamide] | 140 | 1000 | 64 | 57 |
| CC(C)(NC(=O)c1nn(CC2CCC(F)(F)CC2)c2ccccc12)c1cccc(NC(N)=O)c1 [Example 22, N-{2-[3-(Carbamoylamino)phenyl]propan-2-yl}-1-[(4,4-difluorocyclohexyl)methyl]-1H-indazole-3-carboxamide] | 58 | 160 | 89 | 51 |
| CCCCCn1nc(C(=O)NC(C)(C)c2cccc(C(N)=O)c2)c2ccccc21 [Example 17, N-[2-(3-Carbamoylphenyl)propan-2-yl]-1-pentyl-1H-indazole-3-carboxamide] | 180 | 220 | 24 | 43 |
| CNC(=O)Nc1cccc(C(C)(C)NC(=O)c2nn(CCCCCF)c3ccccc23)c1 [Example 28, 1-(5-Fluoropentyl)-N-(2-{3-[(methylcarbamoyl)amino]phenyl}propan-2-yl)-1H-indazole-3-carboxamide] | 65 | 30 | 100 | 61 |
| CC(C)(NC(=O)c1nn(CCCCCF)c2ccccc12)c1cccc(NC(N)=O)c1 [Example 25, N-{2-[3-(carbamoylamino)phenyl]propan-2-yl}-1-(5-fluoropentyl)-1H-indazole-3-carboxamide] | 170 | 570 | 65 | 51 |
| CC(C)(NC(=O)c1nn(Cc2ccc(F)cc2)c2ccccc12)c1cccc(NC(N)=O)c1 [Example 21, N-{2-[3-(Carbamoylamino)phenyl]propan-2-yl}-1-[(4-fluorophenyl)methyl]-1H-indazole-3-carboxamide] | 160 | 1600 | 34 | 34 |
| CC(C)(NC(=O)c1nn(CC2CCOCC2)c2ccccc12)c1cccc(NC(N)=O)c1 [Example 23, N-{2-[3-(Carbamoylamino)phenyl]propan-2-yl}-1-(oxan-4-ylmethyl)-1H-indazole-3-carboxamide] | 94 | 1200 | 91 | 61 |
| CCCCCn1nc(C(=O)NC(C)(C)c2cccc(NC(N)=O)c2)c2ccccc21 [Example 24, N-{2-[3-(Carbamoylamino)phenyl]propan-2-yl}-1-pentyl-1H-indazole-3-carboxamide] | 320 | 1300 | 52 | 47 |
